Results reported in patent US20160362408A1 (Bayer Pharma Aktiengesellschaft, priority 2013, published 2016).

What follows are compounds tested against T1, recombinant guanylate cyclase reporter cell line (Rattus norvegicus, UniProt P19686+P20595) (assay: Effect on a recombinant guanylate cyclase reporter cell line). Conditions: MEC = minimum effective concentration; in some cases mean values for individual determinations.
T1 construct: expressed in transfected cells
T1 sequence (P19686 1-690): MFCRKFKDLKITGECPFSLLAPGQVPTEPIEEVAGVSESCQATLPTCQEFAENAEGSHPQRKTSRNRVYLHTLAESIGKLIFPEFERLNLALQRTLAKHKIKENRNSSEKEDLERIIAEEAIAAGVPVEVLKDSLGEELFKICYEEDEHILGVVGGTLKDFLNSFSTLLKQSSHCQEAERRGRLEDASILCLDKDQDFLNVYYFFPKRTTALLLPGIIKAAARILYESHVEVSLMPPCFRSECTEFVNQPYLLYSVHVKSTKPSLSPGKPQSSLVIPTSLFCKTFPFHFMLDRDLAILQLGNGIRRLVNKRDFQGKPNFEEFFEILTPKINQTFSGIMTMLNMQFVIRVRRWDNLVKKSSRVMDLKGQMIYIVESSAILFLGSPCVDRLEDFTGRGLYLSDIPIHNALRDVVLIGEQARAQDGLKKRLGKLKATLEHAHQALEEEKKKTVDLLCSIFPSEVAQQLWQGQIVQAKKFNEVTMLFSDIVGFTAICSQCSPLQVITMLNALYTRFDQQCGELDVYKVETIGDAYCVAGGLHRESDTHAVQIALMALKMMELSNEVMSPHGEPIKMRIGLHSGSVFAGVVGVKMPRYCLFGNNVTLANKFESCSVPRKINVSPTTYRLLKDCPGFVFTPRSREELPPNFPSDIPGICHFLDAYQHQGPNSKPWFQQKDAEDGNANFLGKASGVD
T1 sequence (P20595 1-619): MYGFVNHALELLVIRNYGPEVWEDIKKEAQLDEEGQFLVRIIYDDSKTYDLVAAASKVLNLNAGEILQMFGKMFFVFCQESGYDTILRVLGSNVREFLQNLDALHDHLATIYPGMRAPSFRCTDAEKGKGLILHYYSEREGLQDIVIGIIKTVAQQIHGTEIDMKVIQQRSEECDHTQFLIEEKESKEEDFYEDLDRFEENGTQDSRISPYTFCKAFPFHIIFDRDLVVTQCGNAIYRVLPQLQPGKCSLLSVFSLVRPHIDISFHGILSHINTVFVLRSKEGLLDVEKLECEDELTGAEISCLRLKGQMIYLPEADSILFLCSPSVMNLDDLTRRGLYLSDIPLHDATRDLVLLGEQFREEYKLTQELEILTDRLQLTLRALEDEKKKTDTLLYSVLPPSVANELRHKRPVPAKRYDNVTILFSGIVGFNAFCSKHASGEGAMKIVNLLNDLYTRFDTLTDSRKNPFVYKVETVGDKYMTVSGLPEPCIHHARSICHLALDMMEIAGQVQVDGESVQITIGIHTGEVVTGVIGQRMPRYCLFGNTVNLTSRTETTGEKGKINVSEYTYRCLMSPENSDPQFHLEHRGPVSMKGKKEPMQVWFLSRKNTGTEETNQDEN
Format: cell-based
Protocol: B-2. Effect on a Recombinant Guanylate Cyclase Reporter Cell Line
The cellular action of the compounds of the invention is determined using a recombinant guanylate cyclase reporter cell line, as described in F. Wunder et al., Anal. Biochem. 339, 104-112 (2005).
Representative MEC values (MEC=minimum effective concentration) for the compounds of the invention are shown in the table below (in some cases as mean values for individual determinations): […]

SMILES | MEC
Cc1ccc2c(NC(=O)c3c(C)nc4c(OCc5c(F)cccc5F)cccn34)cccc2n1 [Example 64] | 0.2 µM
Cc1ccc2cccnc2c1NC(=O)c1c(C)nc2c(OCc3c(F)cccc3F)cccn12 [Example 65] | 1.0 µM
Cc1ccc2ccccc2c1NC(=O)c1c(C)nc2c(OCc3c(F)cccc3F)cccn12 [Example 66] | 0.1 µM
Cc1nc2c(OCc3c(F)cccc3F)cccn2c1C(=O)Nc1cccc2cnccc12 [Example 67] | 0.3 µM
Cc1nc2c(OCc3c(F)cccc3F)cccn2c1C(=O)Nc1cccc2ncccc12 [Example 68] | 0.3 µM
Cc1cc(NC(=O)c2c(C)nc3c(OCc4c(F)cccc4F)cccn23)c2ccccc2n1 [Example 69] | 0.55 µM
Cc1cc2c(NC(=O)c3c(C)nc4c(OCc5c(F)cccc5F)cccn34)cccc2nn1 [Example 70] | 0.3 µM
Cc1nc2c(OCc3c(F)cccc3F)cccn2c1C(=O)Nc1ccnc2ccc(Cl)cc12 [Example 71] | 0.1 µM
Cc1nc2c(OCc3c(F)cccc3F)cccn2c1C(=O)Nc1ccc(C)c2ncccc12 [Example 72] | 0.3 µM
Cc1nc2c(OCc3c(F)cccc3F)cccn2c1C(=O)Nc1cccc2ccc(O)cc12 [Example 74] | 1.0 µM
Cc1nc2c(OCc3c(F)cccc3F)cccn2c1C(=O)Nc1c(C(F)(F)F)n[nH]c1C [Example 76, 8-[(2,6-Difluorobenzyl)oxy]-2-methyl-N-[5-methyl-3-(trifluoromethyl)-1H-pyrazol-4-yl]imidazo[1,2-a]pyridine-3-carboxamide] | 0.1 µM
Cc1nc2c(OCc3c(F)cccc3F)cccn2c1C(=O)Nc1ccnc2cc(Cl)ccc12 [Example 77, N-(7-Chloroquinolin-4-yl)-8-[(2,6-difluorobenzyl)oxy]-2-methylimidazo[1,2-a]pyridine-3-carboxamide] | 0.1 µM
Cc1nc2c(OCc3c(F)cccc3F)cccn2c1C(=O)Nc1ccnc2c(F)cccc12 [Example 78] | 1.0 µM
Cc1nc2c(OCc3c(F)cccc3F)cccn2c1C(=O)Nc1ccnc2ccc(C(F)(F)F)cc12 [Example 79] | 0.1 µM
Cc1nc2c(OCc3c(F)cccc3F)cccn2c1C(=O)Nc1n[nH]c2ccccc12 [Example 80, 8-[(2,6-Difluorobenzyl)oxy]-N-(1H-indazol-3-yl)-2-methylimidazo[1,2-a]pyridine-3-carboxamide] | 0.3 µM
Cc1nc2c(OCc3c(F)cccc3F)cccn2c1C(=O)Nc1cn(C)nc1CO [Example 81] | 1.0 µM
Cc1nc2c(OCc3c(F)cccc3F)cc(Cl)cn2c1C(=O)Nc1cnn2ccccc12 [Example 82] | 0.3 µM
Cc1nc2c(OCc3c(F)cccc3F)cccn2c1C(=O)Nc1nnc(CCOC(C)C)s1 [Example 83] | 3.0 µM
Cc1nc2c(OCc3c(F)cccc3F)cccn2c1C(=O)Nc1nnc(C2CC2)s1 [Example 84] | 3.0 µM
Cc1cc(OCc2c(F)cccc2F)c2nc(C)c(C(=O)Nc3cnn(CC(F)(F)F)c3)n2c1 [Example 85] | 0.1 µM
Cc1cc(OCc2c(F)cccc2F)c2nc(C)c(C(=O)Nc3cnn(CCO)c3)n2c1 [Example 86] | 0.3 µM
Cc1cc(OCc2c(F)cccc2F)c2nc(C)c(C(=O)Nc3c(C)nn(CCO)c3C)n2c1 [Example 87] | 0.3 µM

SMILES | MEC
Cc1nc2c(OCc3c(F)cccc3F)cccn2c1C(=O)Nc1c(C(C)(C)O)n[nH]c1C [Example 88] | 0.65 µM
Cc1cc(OCc2c(F)cccc2F)c2nc(C)c(C(=O)Nc3cnn(COCC(F)(F)F)c3)n2c1 [Example 89] | 0.1 µM
Cc1nc2c(OCc3c(F)cccc3F)cccn2c1C(=O)Nc1cnn(COCC(F)(F)F)c1 [Example 90] | 0.3 µM
Cc1cc(OCc2c(F)cccc2F)c2nc(C)c(C(=O)Nc3ccnc4ccc(F)cc34)n2c1 [Example 91, 8-[(2,6-Difluorobenzyl)oxy]-N-(6-fluoroquinolin-4-yl)-2,6-dimethylimidazo[1,2-a]pyridine-3-carboxamide] | 0.01 µM
Cc1nc2c(OCc3c(F)cccc3F)cc(Cl)cn2c1C(=O)Nc1ccnc2ccc(F)cc12 [Example 92] | 0.1 µM
Cc1ccncc1NC(=O)c1c(C)nc2c(OCc3c(F)cccc3F)cccn12 [Example 93] | 1.0 µM
Cc1cc(OCc2c(F)cccc2F)c2nc(C)c(C(=O)Nc3c(C(F)(F)F)n[nH]c3C)n2c1 [Example 94] | 0.1 µM
Cc1nc2c(OCc3c(F)cccc3F)cccn2c1C(=O)Nc1cccnc1 [Example 95] | 0.3 µM
Cc1nc2c(OCc3c(F)cccc3F)cccn2c1C(=O)Nc1ccc(N2CCN(C)CC2)cc1 [Example 96] | 3.0 µM
Cc1nc2c(OCc3c(F)cccc3F)cccn2c1C(=O)Nc1ccc(N2CCN(C)CC2)c(C(F)(F)F)c1 [Example 97] | 1.0 µM
Cc1nc2c(OCc3c(F)cccc3F)cccn2c1C(=O)Nc1ccc(NCCO)cc1 [Example 98] | 1.0 µM
Cc1nc2c(OCc3c(F)cccc3F)cccn2c1C(=O)Nc1cccc(N2CCN(C)CC2)c1 [Example 99] | 3.0 µM
Cc1nc2c(OCc3c(F)cccc3F)cccn2c1C(=O)Nc1ccnc2cc(C(F)(F)F)ccc12 [Example 100] | 1.65 µM
Cc1cc(NC(=O)c2c(C)nc3c(OCc4c(F)cccc4F)cccn23)cc(C)n1 [Example 101] | 1.0 µM
CCOc1cc(NC(=O)c2c(C)nc3c(OCc4c(F)cccc4F)cccn23)cc(C)n1 [Example 102] | 0.3 µM
Cc1nc2c(OCc3c(F)cccc3F)cccn2c1C(=O)Nc1nn(C)c2ccc(C(F)(F)F)cc12 [Example 103, 8-[(2,6-Difluorobenzyl)oxy]-2-methyl-N-[1-methyl-5-(trifluoromethyl)-1H-indazol-3-yl]imidazo[1,2-a]pyridine-3-carboxamide] | 1.0 µM
Cc1nc2c(OCc3c(F)cccc3F)cc(Cl)cn2c1C(=O)Nc1ccccc1CN [Example 104, N-[2-(Aminomethyl)phenyl]-6-chloro-8-[(2,6-difluorobenzyl)oxy]-2-methylimidazo[1,2-a]pyridine-3-carboxamide] | 3.0 µM
Cc1nc2c(OCc3c(F)cccc3F)cccn2c1C(=O)Nc1ccc(N2CCNCC2)c(F)c1 [Example 106, 8-[(2,6-difluorobenzyl)oxy]-N-[3-fluoro-4-(piperazin-1-yl)phenyl]-2-methylimidazo[1,2-a]pyridine-3-carboxamide] | 1.0 µM
Cc1nc2c(OCc3c(F)cccc3F)cccn2c1C(=O)Nc1ccc(N2CCNCC2)c(C(F)(F)F)c1 [Example 107, 8-[(2,6-difluorobenzyl)oxy]-2-methyl-N-[4-(piperazin-1-yl)-3-(trifluoromethyl)phenyl]imidazo[1,2-a]pyridine-3-carboxamide] | 1.0 µM
Cc1cc(N2CCNCC2)ccc1NC(=O)c1c(C)nc2c(OCc3c(F)cccc3F)cc(Cl)cn12 [Example 108, 6-chloro-8-[(2,6-difluorobenzyl)oxy]-2-methyl-N-[2-methyl-4-(piperazin-1-yl)phenyl]imidazo[1,2-a]pyridine-3-carboxamide] | 1.0 µM
Cc1nc2c(OCc3c(F)cccc3F)cc(Cl)cn2c1C(=O)Nc1ccc(N2CCNCC2)c(F)c1 [Example 109, 6-chloro-8-[(2,6-difluorobenzyl)oxy]-N-[3-fluoro-4-(piperazin-1-yl)phenyl]-2-methylimidazo[1,2-a]pyridine-3-carboxamide] | 3.0 µM
